{"source": "patent US5405857A", "about": "“3-substituted 1,2,3,4,-oxatriazole-5-imine compounds, a process for the preparation thereof and a pharmaceutical preparation containing said compounds” (A/S GEA Farmaceutisk Fabrik, priority 1991, dated 1995)", "key": {"[1]": {"assay": "Maximum tolerable dose (MTD) study i.p.", "assay_type": "in vivo, rat", "settings": "rat, in vivo, ip; intraperitoneal, rats", "procedure": "(§1) Two tests were carried out on male rats, namely a determination of the \"maximum tolerable dose\" (MTD) and a test using multiple peroral doses. In addition, a LD50 test was carried out intravenously on mice.\n(§2) In a MTD-test 10 animals were administered a dose of the substance once a day for a week, during which period the clinical and hematological parameters were recorded. When no signs of side effects appeared, the dose was increased in the following weeks until side effects appeared. The hemotological parameters measured were the following: the number of red and white blood cells, the number of blood platelets, the hemoglobin percentage, the hematocrit, and for the red blood cells also the average cell volume, the average cell hemoglobin content, and the average cell hemoglobin concentration. Furthermore, a differential count of the white blood cells was made."}, "[2]": {"test_system": "male rats", "assay": "Maximum tolerable dose (MTD) study i.p.", "assay_type": "in vivo, rat", "settings": "i.p.", "procedure": "as §1, §2"}, "[3]": {"assay": "Maximum tolerable dose (MTD) study p.o.", "assay_type": "in vivo, rat", "settings": "rat, in vivo, po; peroral, rats", "procedure": "as §1, §2"}, "[4]": {"test_system": "male rats", "assay": "Maximum tolerable dose (MTD) study p.o.", "assay_type": "in vivo, rat", "settings": "p.o.", "procedure": "as §1, §2"}, "[5]": {"test_system": "blood platelets", "assay": "Inhibition of blood platelet aggregation (aggregometer, ADP)", "assay_type": "cell-based, human (healthy testees)", "settings": "Platelet, 0.05 h; human PRP, ADP 2 to 4 μM, 3 min incubation, 37° C.; read-out: IC50 (Inhibition of blood platelet aggregation)", "procedure": "Compounds according to the invention were tested for their inhibition of clumping together (aggregation) of blood platelets (thrombocytes), which is the first phase of the formation of blood clots (thrombi). Such an inhibition may prevent the formation of blood clots and inhibit the development of new thrombi after a diagnosed thrombus.\nCitrate stabilized ( 0.38% of sodium citrate, final concentration) venous blood from healthy testees is used, who have not used medicine for at least 8 days. Slight centrifugation (160×g for 10 minutes) results in PRP (blood plasma rich in platelets) which is pipetted. PPP (blood plasma poor in platelets) is obtained by an intense centrifugation (3000×g for 10 minutes) of the remaining blood. The light transmission is measured by the aggregometer (CHRONOLOG). PRP allows nearly no light transmitaaion, while PPP allows complete transmission of light. The PRP is placed in the aggregometer at 37° C. while being stirred by a magnet. Addition of a pro-aggregating substance causes the PRP to aggregate gradually and an increasing light transmission takes place at the same time. At complete aggregation a light transmission corresponding to PPP is obtained. Adnosine diphosphate (ADP) is used as pro-aggregating substance, said substance representing a basic biochemical mechanism for aggregation of blood platelets. The test substances are incubated for 3 minutes in PRP placed in the aggregometer at 37° C. during magnetic stirring. A predetermined positively aggregating dosage of adenosine diphosphate (ADP) (2 to 4 μM) is then added. […] A so-called IC50 -value (that is the concentration inhibiting the aggregation by 50% relative to the control aggregation) is calculated for each test substance by linear regression analysis (log concentration μM as constant ad abscissa and % inhibition as variable ad ordinate). The following known reference substances have been used: nitroglycerine (GTN), sodium nitroprusside (NNP) and SIN-1 (the active metabolite of molsidomine)."}, "[6]": {"settings": "10 mg/kg once a day for a week, relative to control"}, "[7]": {"settings": "20 mg/kg once a day for a week, relative to control"}, "[8]": {"settings": "20 mg/kg once a day for a week, relative to control, hydrochloride, 20 mg/kg"}, "[9]": {"settings": "40 mg/kg once a day for a week, relative to control"}}, "note": "Entries after “also recorded” stand apart in the source; their conditions may differ. Counter-ions that a name gives are not always drawn."}
{"compound": "Cc1c(Cl)cccc1-[n+]1noc([NH-])n1", "note": "[Example 1, 3-(3-chloro-2-methylphenyl)-1,2,3,4-oxatriazole-5-imine hydrochloride]", "values": [{"measurement": "MTD", "setting": "[1]", "result": "~20", "unit": "mg/kg"}, {"measurement": "Clinical observations", "setting": "[2]; [6]", "result": "N.R."}, {"measurement": "Hematological parameters", "setting": "[2]; [6]", "result": "N:R"}, {"measurement": "Increase in weight", "setting": "[2]; [6]", "result": "N.R."}, {"measurement": "Increase in weight", "setting": "[2]; [7]", "result": "reduced"}, {"measurement": "Clinical observations", "setting": "[2]; [8]", "result": "a passing CNS effect, where the animals a few minutes after the administration seemed nervous and hyperactive"}, {"measurement": "Hematological parameters: neutrophilic granulocytes with toxic granulation", "setting": "[2]; [8]", "result": "increased number of neutrophilic granulocytes and a toxic granulation in some cells"}, {"measurement": "Tolerability (in words)", "setting": "[2]; rats, up to 20 mg/kg", "result": "tolerated with only minor side effects"}, {"measurement": "MTD", "setting": "[3]", "result": 40, "unit": "mg/kg"}, {"measurement": "Clinical observations", "setting": "[4]; [6]", "result": "N.R."}, {"measurement": "Hematological parameters", "setting": "[4]; [6]", "result": "N.R."}, {"measurement": "Increase in weight", "setting": "[4]; [6]", "result": "N.R."}, {"measurement": "Clinical observations", "setting": "[4]; [7]", "result": "N.R."}, {"measurement": "Hematological parameters", "setting": "[4]; [7]", "result": "N.R."}, {"measurement": "Increase in weight", "setting": "[4]; [7]", "result": "N.R."}, {"measurement": "Clinical observations", "setting": "[4]; [9]", "result": "N.R."}, {"measurement": "Hematological parameters: hemoglobin percentage (HGB)", "setting": "[4]; [9]", "result": "reduced HGB"}, {"measurement": "Hematological parameters: red blood cells (RBC)", "setting": "[4]; [9]", "result": "reduced RBC"}, {"measurement": "Increase in weight", "setting": "[4]; [9]", "result": "N.R."}, {"measurement": "Hematological parameters: white blood cells (WBC)", "setting": "[4]; 40 mg/kg once a day for a week, relative to control, hydrochloride, 40 mg/kg", "result": "increased WBC; also recorded: increased content of white blood cells"}, {"measurement": "Signs of anemia", "setting": "[4]; 40 mg/kg, after one week", "result": "signs of anemia"}, {"measurement": "IC50", "setting": "[5]", "result": 320, "unit": "nM"}]}
